Source: patent US4677968A, “Methods of testing the reaction of various substances on living human skin” (priority 1986, dated 1987)

Experiments:
[1] = test system: rat/rat skin sandwich flap (enzyme in the skin, deaminase); assay: Metabolism of vidarabine in the rat/rat skin sandwich flap; format: in vivo; details: radiolabeled vidarabine on rat/rat flap, half-cell diffusion chamber
From the text: (§1) In this example, the procedure followed in Example 1 was followed to produce a rat/rat skin flap with accessible vasculature.
Test compounds were applied to either the host or the graft side of the flap. Test compounds in their vehicles were placed in either a 1.5 cm diameter well, prepared from a HolliSeal® skin barrier (a sheet of silicone material with adhesive on both sides) (Hollister Incorporated, Libertyville, IL), or in a half-cell diffusion chamber. The HolliSeal well is generally covered with Parafilm to prevent evaporation. […]
(§2) At the time of an experiment, with the animal under Ketamine anesthesia, the vessels supplying and draining the flap were exposed through an incision over the inguinal ligament. […] Concentration of radiolabeled compound, or its metabolities, in the blood were subsequently assessed by liquid scintillation counting and chromatographic techniques. Concentrations in the donor chamber were sampled periodically and quantitated in a similar manner.
Additional experiments, using an antiviral substance, vidarabine, have been performed to assess the metabolic activity in the skin. […] Accordingly, radiolabeled vidarabine was placed on a rat/rat skin sandwich flap system, and the amount of vidarabine and its metabolite, ara-H, was measured in the blood draining the flap.

[2] = Role of blood flow on percutaneous absorption (iontophoresis of phenylephrine), rat/rat flap; format: in vivo; details: rat, in vivo, topical or ocular
Procedure: (§3) In this example the experimental procedure described in Example 1 was followed and a rat/rat flap was prepared using an identical procedure. The purpose of this example is to illustrate the role of blood flow on percutaneous absorption processes. In this example, blood flow was locally altered by iontophoresis of phenylephrine. […] The experiment was repeated two weeks later in a nontreated mode, i.e., no alteration in the microcirculation. […] In the situtaton where there is no alteration in the mircocirculation, peak levels occur in approximately 10 minutes. There results reveal that in situations, where compounds are rapidly absorbed, microcirculation to the skin is of critical importance.

[3] = test system: rat/rat flap (host skin / grafted skin); assay: Absorption of benzoic acid across host vs. graft side of the rat/rat skin flap (flap blood sampling); format: in vivo
From the text: Breeding pairs of nude rats were obtained from the Animal Production Facility of the National Cancer Institutes (Frederick, MD) and the colony was expanded by mating male rats homozygous for nude (athymic) with females heterozygous for nude.
(§4) A skin flap was generated by incising the abdominal skin of the rat along three sides. The donor STSG was trimmed to approximate the size of the epigastric flap and was placed in the wound, with the epidermis facing the abdominal musculature of the host. The overlying epigastric host skin was returned to its normal anatomic position. The epigastric skin and the STSG were sutured in place, creating a sandwich having a vascular pedicle sandwiched between the skin layers. This surgical procedure produced a flap which received essentially all of its blood from the superficial epigastric vessels.
(§5) Two weeks later, the femoral vessels distal to the origin of the superficial epigastric vessels were surgically isolated and divided. This manipulation maximized the blood flow from the femoral artery to the sandwich flap. The flap was raised and isolated on its neurovascular pedicle (a single artery, vein, and nerve) using the operating microscope.
(§6) The donor site on the rat's abdomen was covered with a STSG from another syngeneic animal and sutured in place. The flap, on its isolated vascular pedicle, was moved through a subcutaneous tunnel to the rat's dorsum, where it was sutured in place.
as §1
Test compounds were applied to either the host or the graft side of the flap. Test compounds in their vehicles were placed in either a 1.5 cm diameter well, prepared from a HolliSeal® skin barrier (a sheet of silicone material with adhesive on both sides) (Hollister Incorporated, Libertyville, IL), or in a half-cell diffusion chamber. The HolliSeal well is generally covered with Parafilm to prevent evaporation. The half-cell diffusion chamber has a 2.7 ml volume, an impeller to avoid problems of unstirred solutions, a water jacket to maintain a constant temperature, and a sampling port (Dependable Scientific Glass, Salt Lake City, UT).
In an initial series of experiments ^14 C benzoic acid, specific activity 58.6 mCi/mM (New England Nuclear, Boston MA) in phosphate buffered saline, was used in various concentrations in the HolliSeal well and the half-cell diffusion chamber. These experiments were designed to compare the absorption of benzoic acid across the host and graft sides of the flap as a means of validating the system. In another series of experiments 3H-vidarabine, specific activity 38 mCi/mg (2.7 ml), was added to a half-cell diffusion chamber to validate the flap as a system to study the metabolism of a drug as it crosses the skin. 3H-vidarabine, specific activity 38 mCi/mg (2.7 ml), was added to a half-cell diffusion chamber attached to rat/rat skin sandwich flaps, which had previously been tape-stripped.
At the time of an experiment, with the animal under Ketamine anesthesia, the vessels supplying and draining the flap were exposed through an incision over the inguinal ligament. A venotomy was made in the femoral vein proximal to the juncture of the superficial epigastric vein to sample flap blood. A venotomy was also made in the contralateral femoral view to sample systemic blood. The blood samples (approximately 40 ul) were collected periodically in heparinized microhematocrit capillary tubes. Concentration of radiolabeled compound, or its metabolities, in the blood were subsequently assessed by liquid scintillation counting and chromatographic techniques. Concentrations in the donor chamber were sampled periodically and quantitated in a similar manner. […]

[4] = test system: rat/human flap (host side); assay: Transdermal flux of benzoic acid in the rat/human flap, host side; format: in vivo
From the text: as §4, §5, §6
Test compounds were applied to either the host or the graft side of the flap. […]
as §2, with “manner. […]” for “manner.”
In this experiment, 20 ug of ^14 C benzoic acid (4.5 uCi) in 95% ethanol was applied to the host side of the flap. […] Thereafter steady state was attained and flux was calculated to be 0.045 uCi/min/cm^2. […]

[5] = test system: host rat graft or human graft (rat skin vs. human skin); details: in vivo
From the text: The objective of this experiment was to determine differences in absorption, rat skin vs. human skin, rat graft vs. rat host skin, with a second agent, caffeine.

human skin = assay: In vitro topical application of caffeine to human skin; format: in vitro ADME
Procedure: (§7) Compounds will frequently bind to the skin. Thus, after being absorbed through the outer protective layer, the stratum corneum, there is a possibility that the compound being tested will not be absorbed into the blood stream. It is anticipated that caffeine could be such a product. […] It is surprising to observe peak levels of caffeine within 30 minutes of topical application in the in vivo situation using the system described in Example 1. […] This confirmed the notion that there are binding sites of caffeine within the dermis.

[6] = test system: skin flap (system described in Example 1); assay: In vivo topical application of caffeine in the flap system of Example 1
Procedure: as §7

[7] = as above; details: rat, topical or ocular; in vivo, topical application; read-out: time of peak levels of caffeine
Procedure: as §7

flap = details: rat, in vivo
From the text: Following an intravenous injection of fluorescein, the amount of fluorescein that moves into tissue, and the rapidity with which it clears, depends upon the volume of blood to the area, the adequacy of venous drainage, and renal clearance. The influx and clearance of fluorescein, as measured with a surface hand-held dermofluorometer, has been evaluated as a function of time after occluding either the supplying artery or the draining vein.
Instrumentation used included: (1) Dermatome (Brown Electro-Dematome, Model 666, Zimmer Inc., Warsaw, IN) to generate the split-thickness skin grafts; (2) an operating microscope (Model OPMI 6-SD Carl Zeiss, West Germany) equipped with a fiberoptic illuminator (Model 310187, Dyonics, Andover, MA), to isolate the microvasculature supplying the skin flap; (3) Laser Doppler flow velocimeter (LD 5000, Med Pacific, Seattle, WA)--to noninvasively assess microcirculation of the skin; (4) electromagnetic blood flow transducer, C type 0.5 mm, 0.8 mm, and 1 mm in diameter (C&C INstruments, Culver City, CA)--to directly assess blood flow through the vessels supplying and draining the flap; and (5) a hand-held fiberoptic dermofluorometer (Fluoroscan-Santa Barbara Technology, Santa Barbara, CA), to assess blood flow by monitoring the appearance and clearance of fluorescein in the flap.

rat/rat flap = assay: Role of blood flow on percutaneous absorption (iontophoresis of phenylephrine), rat/rat flap; format: in vivo; details: iontophoresis, circumscribed area
Procedure: as §3

[8] = test system: rat/rat skin sandwich flap (enzyme in the skin, deaminase); details: stated as known; cited from earlier work
[9] = grafted side, three weeks later

## O=c1[nH]cnc2c1ncn2[C@@H]1O[C@H](CO)[C@@H](O)[C@@H]1O [ara-H]
[1]
  back-diffusion through the skin into the donor chamber: diffused back through the skin into the donor chamber

## O=C(O)c1ccccc1 [benzoic acid]
[2]; decreased microcirculation (iontophoresis of phenylephrine), read-out: time of peak benzoic acid levels in flap blood (converted)
  Tmax: ~140 min
[2]; no alteration in the microcirculation, two weeks later, read-out: time of peak levels in flap blood (converted)
  Tmax: ~10 min
[3]; donor well
  decrease in concentration in the donor well (time course): linear with time
[3]; donor well, decreasing from
  benzoic acid concentration in the donor well, start of decrease: 2.2 µg/mL
[3]; donor well, decreasing to
  benzoic acid concentration in the donor well, end of decrease: 0.75 µg/mL
[3]; [9]
  course of flux after the peak: even more rapid decline
  peak flux across the grafted side: 2.2 uCi/min/cm^2
[3]; host skin
  course of flux after the peak: decreased rapidly
[3]; host skin, HolliSeal well, 0.52 uCi/ul in unbuffered water, 100 ul
  time of peak flux: 30 min
[3]; host skin, assuming a blood flow of 1.5 ml/min
  flux across host skin: 0.84 uCi/min/cm^2
[3]; same for host and grafted side
  total amount absorbed: 1.04 µg·min/µL
[4]; 20 ug (4.5 uCi) in 95% ethanol
  steady state flux: 0.045 uCi/min/cm^2
  time of peak flux: one
[4]; half-cell diffusion chamber, maximal hydration of the skin
  time of peak flux: ≤ 10 min

## Cn1c(=O)c2c(ncn2C)n(C)c1=O [caffeine]
[5]
  increase in absorption, rat skin relative to human skin: ~8 fold
Human skin; topical, human skin
  time until appearance in the donor chamber: 6 to 12 h
Human skin; two doses
  effect of a second dose on absorption: did not alter absorption
[6]; in vivo, two doses
  effect of a second dose on absorption: greater than predicted absorption
[6]; lower layer of skin / dermis, in vitro vs. in vivo comparison
  binding in the skin: there are binding sites within the lower layer of skin which bind caffeine
[7]
  Tmax: ≤ 30 min

## O=C1OC2(c3ccc(O)cc3Oc3cc(O)ccc32)c2ccccc21 [fluorescein]
flap
  appearance of fluorescein in the flap: failure of the appearance of fluorescein in the flap

## CNC[C@H](O)c1cccc(O)c1 [phenylephrine]
rat/rat flap
  effect on local microcirculation: decreased microcirculation

## Nc1ncnc2c1ncn2[C@@H]1O[C@H](CO)[C@@H](O)[C@@H]1O [vidarabine]
[8]
  metabolism by an enzyme in the skin, deaminase: metabolized by an enzyme in the skin, deaminase
